Assay [1] has as its target human SOS1 (nucleotide exchange of K-Ras^G12C) (Homo sapiens, UniProt Q07889). Nature of the assay: Biochemical assay 2: K-Ras^G12C activation assay by hSOS1 at high GTP concentration (HTRF). As to conditions: high GTP; read-out: Assay 2 (KRAS-Activation by SOS high GTP) activity expressed as IC50. For orientation: Time-resolved FRET reads energy transfer from a long-lived donor to a nearby acceptor.

In assay [2] the target is Epidermal Growth Factor Receptor (EGFR) (Homo sapiens (Human), UniProt P00533). Put plainly: EGFR kinase assay (TR-FRET). The class given is biochemical. As to conditions: values given in μM; read-out: EGFR kinase inhibition IC50. In a few lines:
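Read-out is the 665/620 nm HTRF ratio, from a Tb-cryptate anti-phosphotyrosine antibody and streptavidin-XL665 bound to phosphorylated biotin-peptide substrate. The enzyme, A431-derived EGFR (~3 U/ml), was given 15 min compound pre-binding at 22° C in Hepes pH 7.0 with Mg2+/Mn2+ before reaction.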

Sequence of Epidermal Growth Factor Receptor (EGFR) (P00533 25-1210): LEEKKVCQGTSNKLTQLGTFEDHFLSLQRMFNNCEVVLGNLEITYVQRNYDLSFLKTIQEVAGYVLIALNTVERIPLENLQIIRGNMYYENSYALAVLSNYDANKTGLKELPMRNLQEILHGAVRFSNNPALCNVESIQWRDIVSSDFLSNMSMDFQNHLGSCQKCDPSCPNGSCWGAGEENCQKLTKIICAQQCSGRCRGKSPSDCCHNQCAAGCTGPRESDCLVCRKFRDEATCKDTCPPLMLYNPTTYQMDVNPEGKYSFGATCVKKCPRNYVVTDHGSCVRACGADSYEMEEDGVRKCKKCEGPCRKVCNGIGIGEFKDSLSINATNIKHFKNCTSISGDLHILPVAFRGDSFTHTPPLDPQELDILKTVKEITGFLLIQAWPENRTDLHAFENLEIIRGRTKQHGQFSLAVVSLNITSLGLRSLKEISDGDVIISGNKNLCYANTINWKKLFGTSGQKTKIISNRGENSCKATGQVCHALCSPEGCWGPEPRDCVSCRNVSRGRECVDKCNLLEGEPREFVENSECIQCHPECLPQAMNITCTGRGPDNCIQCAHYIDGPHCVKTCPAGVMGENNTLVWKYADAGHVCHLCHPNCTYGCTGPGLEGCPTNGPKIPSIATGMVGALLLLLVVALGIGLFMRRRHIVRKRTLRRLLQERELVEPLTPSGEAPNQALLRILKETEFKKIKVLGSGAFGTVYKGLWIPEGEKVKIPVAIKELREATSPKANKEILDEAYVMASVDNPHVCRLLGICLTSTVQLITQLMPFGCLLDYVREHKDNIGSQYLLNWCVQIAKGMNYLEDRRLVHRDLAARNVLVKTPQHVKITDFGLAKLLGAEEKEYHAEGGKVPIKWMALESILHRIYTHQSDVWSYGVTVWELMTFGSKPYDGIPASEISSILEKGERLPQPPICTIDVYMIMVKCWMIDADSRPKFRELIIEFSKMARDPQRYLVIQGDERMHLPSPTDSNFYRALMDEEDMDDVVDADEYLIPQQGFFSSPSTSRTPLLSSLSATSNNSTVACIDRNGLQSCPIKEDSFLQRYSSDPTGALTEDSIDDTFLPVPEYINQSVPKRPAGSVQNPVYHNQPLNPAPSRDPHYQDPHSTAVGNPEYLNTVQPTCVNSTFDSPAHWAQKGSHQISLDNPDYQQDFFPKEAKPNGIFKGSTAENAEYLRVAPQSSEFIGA

The term IC50 denotes the midpoint of a concentration-inhibition curve. `COc1cc2nc(C)nc(NC(C)c3ccc(-c4cnc5n4CCC5)s3)c2cc1OC` (single isomer, unassigned; enantiomer 1) [Example 328, N-{1-[5-(6,7-dihydro-5H-pyrrolo[1,2-a]imidazol-3-yl)thiophen-2-yl]ethyl}-6,7-dimethoxy-2-methylquinazolin-4-amine, Enantiomer 1]: the results for the IC50 in assay [1] and in assay [2] were 0.526 µM and greater than 20 µM, respectively.

For `COc1cc2nc(C)nc(NC(C)c3ccc(-c4cnc5n4CCC5)s3)c2cc1OC` (single isomer, unassigned; enantiomer 2) [Example 329, N-{1-[5-(6,7-dihydro-5H-pyrrolo[1,2-a]imidazol-3-yl)thiophen-2-yl]ethyl}-6,7-dimethoxy-2-methylquinazolin-4-amine, Enantiomer 2], the IC50 is 6.47 µM in assay [1] and greater than 20 µM in assay [2].

`COc1cc2nc(C)nc(NC(C)c3ccc(-c4ccc(F)cc4CNC(=O)[C@H]4CCCN4)s3)c2cc1OC` (stereo in doubt) [Example 316, N-[2-(5-{1-[(6,7-dimethoxy-2-methylquinazolin-4-yl)amino]ethyl}thiophen-2-yl)-5-fluorobenzyl]-prolinamide]: the IC50 is 0.284 µM in assay [1] and greater than 20 µM in assay [2].

For the compound `COc1cc2nc(C)nc(NC(C)c3cccc4scnc34)c2cc1OC` (stereo not drawn) [Example 14, N-[1-(1,3-benzothiazol-4-yl)ethyl]-6,7-dimethoxy-2-methylquinazolin-4-amine], the values for the IC50 in assay [1] and in assay [2] were 0.608 µM and greater than 20 µM, respectively.

Regarding `COc1cc2nc(C)nc(NC(C)c3cccc4ccsc34)c2cc1OC` (stereo not drawn) [Example 15, N-[1-(1-benzothiophen-7-yl)ethyl]-6,7-dimethoxy-2-methylquinazolin-4-amine], the IC50 in assay [1] was 0.0911 µM; in assay [2], greater than 20 µM.

On to `COc1cc2nc(C)nc(NC(C)c3cc(C)cc4[nH]ncc34)c2cc1OC` (stereo not drawn) [Example 16, 6,7-dimethoxy-2-methyl-N-[1-(6-methyl-1H-indazol-4-yl)ethyl]quinazolin-4-amine], for which the results for the IC50 in assay [1] and in assay [2] were 3.02 µM and greater than 20 µM, respectively.

In the case of `COc1cc2nc(C)nc(NC(C)c3cccc4c3cnn4C)c2cc1OC` (stereo not drawn) [Example 17, 6,7-dimethoxy-2-methyl-N-[1-(1-methyl-1H-indazol-4-yl)ethyl]quinazolin-4-amine], the IC50 in assay [1] was 0.297 µM; in assay [2], greater than 20 µM.

In the case of `COc1cc2nc(C)nc(NC(C)c3c(F)ccc4[nH]ncc34)c2cc1OC` (stereo not drawn) [Example 18, N-[1-(5-fluoro-1H-indazol-4-yl)ethyl]-6,7-dimethoxy-2-methylquinazolin-4-amine], the values for the IC50 in assay [1] and in assay [2] were 7.68 µM and greater than 20 µM, respectively.

Take `COc1cc2nc(C)nc(NC(C)c3ccc4c(c3)OCCO4)c2cc1OC` (stereo not drawn) [Example 19, N-[1-(2,3-dihydro-1,4-benzodioxin-6-yl)ethyl]-6,7-dimethoxy-2-methylquinazolin-4-amine]: the IC50 was 6.55 µM in assay [1] and greater than 20 µM in assay [2].

As to `COc1cc2nc(C)nc(NC(C)c3cc4ccccc4o3)c2cc1OC` (stereo not drawn) [Example 20, N-[1-(1-benzofuran-2-yl)ethyl]-6,7-dimethoxy-2-methylquinazolin-4-amine], the IC50 in assay [1] was 8.2 µM; in assay [2], greater than 20 µM.

`COc1cc2nc(C)nc(NC(C)c3cccc(OC)c3OC)c2cc1OC` (stereo not drawn) [Example 21, N-[1-(2,3-dimethoxyphenyl)ethyl]-6,7-dimethoxy-2-methylquinazolin-4-amine]: the IC50 in assay [1] was 3.23 µM; in assay [2], greater than 20 µM.

For `COc1cc2nc(C)nc(N[C@H](C)c3cccc(-c4ccccc4CN)c3)c2cc1OC` [Example 258, N-{(1R)-1-[2′-(aminomethyl)biphenyl-3-yl]ethyl}-6,7-dimethoxy-2-methylquinazolin-4-amine], the IC50 in assay [1] is 0.19 µM; in assay [2] it was greater than 20 µM.

Take `COc1cc2nc(C)nc(NC(C)c3csc(-c4ccccc4CN)c3)c2cc1OC` (stereo not drawn) [Example 259, N-[1-{5-[2-(aminomethyl)phenyl]thiophen-3-yl}ethyl]-6,7-dimethoxy-2-methylquinazolin-4-amine]: the IC50 was 0.435 µM in assay [1] and greater than 20 µM in assay [2].

As to `COc1cc2nc(C)nc(N[C@H](C)c3cccc(CN)c3)c2cc1OC` [Example 260, N-{(1R)-1-[3-(aminomethyl)phenyl]ethyl}-6,7-dimethoxy-2-methylquinazolin-4-amine], the figures for the IC50 in assay [1] and in assay [2] were 2.04 µM and greater than 20 µM, respectively.

Regarding `COc1cc2nc(C)nc(N[C@H](C)c3cccc(-c4cnc5n4CCC5)c3)c2cc1OC` [Example 261, N-{(1R)-1-[3-(6,7-dihydro-5H-pyrrolo[1,2-a]imidazol-3-yl)phenyl]ethyl}-6,7-dimethoxy-2-methylquinazolin-4-amine], the figures for the IC50 in assay [1] and in assay [2] were 0.873 µM and greater than 20 µM, respectively.

`COc1cc2nc(C)nc(NC(C)c3ccc(-c4ccccc4CN(C)C)s3)c2cc1OC` (stereo not drawn) [Example 262, N-[1-(5-{2-[(dimethylamino)methyl]phenyl}thiophen-2-yl)ethyl]-6,7-dimethoxy-2-methylquinazolin-4-amine]: the results for the IC50 in assay [1] and in assay [2] were 0.044 µM and greater than 20 µM, respectively.

For the compound `CNCc1ccccc1-c1cc(C(C)Nc2nc(C)nc3cc(OC)c(OC)cc23)cs1` (stereo not drawn) [Example 263, 6,7-dimethoxy-2-methyl-N-[1-(5-{2-[(methylamino)methyl]phenyl}thiophen-3-yl)ethyl]quinazolin-4-amine], the IC50 in assay [1] is 0.232 µM; in assay [2], greater than 20 µM.

`COc1cc2nc(C)nc(NC(C)c3cc(Br)cs3)c2cc1OC` (stereo not drawn) [Example 264, N-[1-(4-bromothiophen-2-yl)ethyl]-6,7-dimethoxy-2-methylquinazolin-4-amine]: the IC50 in assay [1] was 1.67 µM; in assay [2], greater than 20 µM.

Turning to `COc1cc2nc(C)nc(NC(C)c3ccc(-c4cccc(CN)c4)s3)c2cc1OC` (stereo not drawn) [Example 265, N-[1-{5-[3-(aminomethyl)phenyl]thiophen-2-yl}ethyl]-6,7-dimethoxy-2-methylquinazolin-4-amine], the values for the IC50 in assay [1] and in assay [2] were 1.47 µM and greater than 20 µM, respectively.

`COc1cc2nc(C)nc(NC(C)c3ccc(-c4ccc(CN)cc4)s3)c2cc1OC` (stereo not drawn) [Example 266, N-[1-{5-[4-(aminomethyl)phenyl]thiophen-2-yl}ethyl]-6,7-dimethoxy-2-methylquinazolin-4-amine]: the IC50 in assay [1] was 1.7 µM; in assay [2] it was greater than 20 µM.

As to `COc1cc2nc(C)nc(NC(C)c3cc(-c4ccn(CCN5CCCC5)n4)cs3)c2cc1OC` (stereo not drawn) [Example 267, 6,7-dimethoxy-2-methyl-N-[1-(4-{1-[2-(pyrrolidin-1-yl)ethyl]-1H-pyrazol-3-yl}thiophen-2-yl)ethyl]quinazolin-4-amine], the IC50 is 1.52 µM in assay [1] and greater than 20 µM in assay [2].

As for `CNCc1ccccc1-c1cccc([C@@H](C)Nc2nc(C)nc3cc(OC)c(OC)cc23)c1` [Example 268, 6,7-dimethoxy-2-methyl-N-[(1R)-1-{2′-[(methylamino)methyl]biphenyl-3-yl}ethyl]quinazolin-4-amine], the values for the IC50 in assay [1] and in assay [2] were 0.151 µM and greater than 20 µM, respectively.

In the case of `COc1cc2nc(C)nc(NC(C)c3cc(-c4ccc(F)cc4CN)cs3)c2cc1OC` (stereo not drawn) [Example 269, N-[1-{4-[2-(aminomethyl)-4-fluorophenyl]thiophen-2-yl}ethyl]-6,7-dimethoxy-2-methylquinazolin-4-amine], the values for the IC50 in assay [1] and in assay [2] were 0.115 µM and greater than 20 µM, respectively.

As to `COc1cc2nc(C)nc(NC(C)c3cc(-c4ccccc4CN)cs3)c2cc1OC` (stereo not drawn) [Example 270, N-[1-{4-[2-(aminomethyl)phenyl]thiophen-2-yl}ethyl]-6,7-dimethoxy-2-methylquinazolin-4-amine], the IC50 was 0.0822 µM in assay [1] and greater than 20 µM in assay [2].

On to `COc1cc2nc(C)nc(NC(C)c3cc(-c4cnc5n4CCC5)cs3)c2cc1OC` (stereo not drawn) [Example 272, N-{1-[4-(6,7-dihydro-5H-pyrrolo[1,2-a]imidazol-3-yl)thiophen-2-yl]ethyl}-6,7-dimethoxy-2-methylquinazolin-4-amine], for which the IC50 was 1.5 µM in assay [1] and greater than 20 µM in assay [2].

As to `COc1cc2nc(C)nc(NC(C)c3cc(-c4ccn(CCO)n4)cs3)c2cc1OC` (stereo not drawn) [Example 273, 2-[3-(5-{1-[(6,7-dimethoxy-2-methylquinazolin-4-yl)amino]ethyl}thiophen-3-yl)-1H-pyrazol-1-yl]ethanol], the IC50 in assay [1] was 2.36 µM; in assay [2] it was greater than 20 µM.

For `COc1cc2nc(C)nc(N[C@H](C)c3cccc(-c4ccc(F)cc4CN)c3)c2cc1OC` [Example 274, N-{(1R)-1-[2′-(aminomethyl)-4′-fluorobiphenyl-3-yl]ethyl}-6,7-dimethoxy-2-methylquinazolin-4-amine], the IC50 is 0.141 µM in assay [1] and greater than 20 µM in assay [2].

For the compound `COc1cc2nc(C)nc(NC(C)c3ccc(-c4ccc(CN)o4)s3)c2cc1OC` (stereo not drawn) [Example 275, N-[1-{5-[5-(aminomethyl)furan-2-yl]thiophen-2-yl}ethyl]-6,7-dimethoxy-2-methylquinazolin-4-amine], the values for the IC50 in assay [1] and in assay [2] were 2.97 µM and greater than 20 µM, respectively.

`COc1cc2nc(C)nc(NC(C)c3ccc(-c4ccc(CN)s4)s3)c2cc1OC` (stereo not drawn) [Example 276, N-{1-[5′-(aminomethyl)-2,2′-bithiophen-5-yl]ethyl}-6,7-dimethoxy-2-methylquinazolin-4-amine]: the IC50 in assay [1] is 1.66 µM; in assay [2], greater than 20 µM.

As to `COc1cc2nc(C)nc(NC(C)c3ccc(-c4ccccc4CNCC(=O)c4c[nH]c5ccccc45)s3)c2cc1OC` (stereo not drawn) [Example 277, 2-{[2-(5-{1-[(6,7-dimethoxy-2-methylquinazolin-4-yl)amino]ethyl}thiophen-2-yl)benzyl]amino}-1-(1H-indol-3-yl)ethanone], the IC50 was 0.237 µM in assay [1] and greater than 20 µM in assay [2].

The values are drawn from patent US20240083857A1, “2-Methyl-Quinazolines” (Bayer Pharma Aktiengesellschaft, priority 2017, published 2024).
